Measurements published in publication PMC10709327, “A class of secreted mammalian peptides with potential to expand cell-cell communication” (Nature Communications, 2023).
Where a SMILES comes first, the peptide text is derived from it. Where no end group is shown, it is not given here. [ ]: non-standard residue; d: D form. pGlu = O=C1CC[C@@H](C(=O)O)N1

Columns and labels:
in vitro = test: in vitro
Protocol: P value were calculated with two-way ANOVA. Source data are provided as a Source Data file.
At indicated time point, 1 µl of HALT protease inhibitor was immediately added, and plasma was boiled and prepared using the peptidomics workflow described above. […] Half-lives were calculated using an exponential decay fit.

human TACR3 = target: T1, human TACR3 (Homo sapiens, UniProt P29371); test: TACR agonist assay, PathHunter beta-arrestin recruitment (TACR3); type: cell-based; conditions: read-out: maximal activation at TACR3, higher compared to Substance P(6-11)
T1 construct: host or cells: PathHunter beta-arrestin CHO-K1 cells
T1 sequence (P29371 1-465): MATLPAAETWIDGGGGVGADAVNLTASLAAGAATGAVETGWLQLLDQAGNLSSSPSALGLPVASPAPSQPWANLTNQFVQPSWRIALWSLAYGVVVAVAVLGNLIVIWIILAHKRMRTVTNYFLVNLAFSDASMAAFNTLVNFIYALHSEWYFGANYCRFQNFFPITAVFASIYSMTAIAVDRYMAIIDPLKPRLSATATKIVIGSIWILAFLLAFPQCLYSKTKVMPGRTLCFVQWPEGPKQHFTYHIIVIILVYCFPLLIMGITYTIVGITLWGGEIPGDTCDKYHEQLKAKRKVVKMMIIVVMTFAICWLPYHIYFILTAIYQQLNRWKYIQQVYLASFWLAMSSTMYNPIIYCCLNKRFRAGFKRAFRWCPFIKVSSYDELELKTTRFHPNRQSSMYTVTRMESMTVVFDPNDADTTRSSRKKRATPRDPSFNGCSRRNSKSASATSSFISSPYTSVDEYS

[1] = tested on: diet-induced obese male mice; test: 3-day food intake and body weight under daily dosing; type: in vivo, mouse; conditions: for Food Intake: 50 mg/kg
Protocol: (§1) Fig. 5 Functional studies of […] in feeding and energy balance in mice. a Schematic of the primary amino acid sequence for full-length mouse GDF15 preproprotein and annotation of CAP-GDF15 sequence as well as the canonical GDF15 hormone sequence. b–d Food intake (b), respiratory exchange ratio (RER, c), and ambulatory activity (d) of 12–16-week diet-induced obese male mice following a single treatment of CAP-GDF15 (50 mg/kg, intraperitoneal) or vehicle control. e–g Food intake (e), RER (f), and ambulatory activity (g) of 12–16-week diet-induced obese male mice following a single treatment of scrambled CAP-GDF15 (50 mg/kg, intraperitoneal, scrambled sequence: pGlu-[…]-NH2) or vehicle control. h, i 3-day food intake (h) and body weight (i) of 12–16-week diet-induced obese male mice following treatment with CAP-GDF15 or scrambled CAP-GDF15 (50 mg/kg/day, IP), or vehicle control. Data are shown as means ± SEM. b–d, N = 12 mice/group; for e, f N = 8 mice/group; for h N = 7 food cages for vehicle and CAP-GDF15 groups and N = 5 for the scrambled peptide group; for i N = 14 mice for the vehicle group, N = 13 for the CAP-GDF15 group, and N = 5 for the scrambled peptide group. b–i injection occurred at time T = 0 (5:00 pm) and data were collected for the following 16 hrs. For (b-i), p values were calculated by two-way ANOVA. Source data are provided as a Source Data file.
Lastly, to determine whether the acute food intake suppressive effects of CAP-GDF15 would lead to long-term suppression of feeding and obesity, we administered CAP-GDF15 or scrambled CAP-GDF15 (50 mg/kg/day, IP), or vehicle control to diet-induced obese mice. Food intake and body weight were monitored over a three-day period. A durable suppression of food intake in CAP-GDF15-treated mice was over the three-day experiment (Vehicle, 7.3 ± 0.5 g/mouse; […], 4.1 ± 0.9 g/mouse/day, P < 0.05, Fig. 5h). Consequently, and as expected, an increasing reduction in body weight was also detected (Vehicle, +0.1 ± 0.3 g/mouse; CAP-GDF15, −1.9 ± 0.3 g/mouse, P < 0.001, Fig. 5i). Importantly, mice treated with the scrambled CAP-GDF15 peptide were indistinguishable in body weight or food intake from control mice (P > 0.05 versus vehicle-treated mice, Fig. 5h, i).
(§2) Animal experiments were performed according to a procedure approved by the Stanford University Administrative Panel on Laboratory Animal Care. Mice were maintained in 12-h light-dark cycles at 22 °C and about 50% relative humidity and fed a standard irradiated rodent diet. Where indicated, a high-fat diet (D12492, Research Diets 60% kcal from fat) was used. Male C57BL/6 J (stock number 000664) and male C57BL/6 J DIO mice were purchased from the Jackson Laboratory (stock number 380050). For studies in high-fat diet-fed mice, peptides were dissolved in 18:1:1 (by volume) of saline:Kolliphor EL (Sigma Aldrich):DMSO and administered to mice by intraperitoneal injections at a volume of 10 µl/g at the indicated doses for the indicated times. For lipopolysacchardide injection, LPS (Sigma, #L2880-10MG) was dissolved in saline and administered to mice at a volume of 5 µl/g at indicated dose. For fasting, food was removed from mice for 16 h. For running, a six-lane Columbus Instruments animal treadmill (product 1055-SRM-D65) was used with following 1 h protocol: 10 min at 6 m/min, 50 min at 18 m/min, and increase every 2 min by 2 m/min for the last 10 minutes, all at 12° incline. For all treatment experiments, mice were mock injected with the vehicle for 3–5 days until body weights were stabilized. Heparin plasma was harvested by submandibular bleed. For all experiments, mice were randomly assigned to treatment groups. Experimenters were not blinded to groups.

[2] = tested on: diet-induced obese male mice; test: Metabolic chamber studies after a single dose (food intake, RER, movement, VO2, VCO2); type: in vivo, mouse; conditions: single dose 50 mg/kg intraperitoneal, diet-induced obese male mice, metabolic chambers
Protocol: as §1, with “Data are shown as means ± SEM. b–d, N = 12 mice/group; for e, f N = 8 mice/group; for h N = 7 food cages for vehicle and CAP-GDF15 groups and N = 5 for the scrambled peptide group; for i N = 14 mice for the vehicle group, N = 13 for the CAP-GDF15 group, and N = 5 for the scrambled peptide group. b–i injection occurred at time T = 0 (5:00 pm) and data were collected for the following 16 hrs.” left out
as §2
For acute energy expenditure studies, food intake, RER, movement, VO2, and VCO2 were collected with CLAMS Oxymax Metabolic Cages. Mice were placed in individual metabolic cages for 24 hours prior to experiment. Mice were injected with either vehicle, 50 mg/kg CAP-GDF15, 50 mg/kg uncapped CAP-GDF15, or 50 mg/kg scrambled CAP-GDF15 at 5 pm at T = 0. […] All experiments were done with 3–5 month old DIO mice (Jackson, stock 380050), fed high-fat diet ad libitum.
Supplementary Figure 5. Additional measurements from metabolic chambers of mice treated with CAP-GDF15. a CAP-GDF15 plasma concentration after administration of CAP-GDF15 (50 mg/kg, intraperitoneal) or vehicle control. b-c VO2 (b) and VCO2 (c) of 12-16-week diet-induced obese male mice following a single treatment of CAP-GDF15 (50 mg/kg, intraperitoneal) or vehicle control. d-e VO2 (d) and VCO2 (e) of 12-16-week diet-induced obese male mice following a single treatment of scrambled CAP-GDF15 (50 mg/kg, intraperitoneal, scrambled sequence: p[…]-NH2) or vehicle control. f Acute food intake of 12-16-week diet-induced obese male mice following a single treatment of CAP-GDF15 (50 mg/kg, intraperitoneal), uncapped CAP-GDF15 (50 mg/kg, intraperitoneal), or vehicle control. For (a), N=3/group; (b-c), N=12/group; for (d-e), N=8/group; for (f), N=5/group.
For (a-f), injection occurred at time T=0 (5:00pm). Data are shown as means ± SEM. For (b-i), p values were calculated by two-way ANOVA. Source data are provided as a Source Data

[3] = human, in vivo; cited from earlier work
[4] = 50 mg/kg/day IP, diet-induced obese mice, N = 5, P > 0.05 versus vehicle

CSCC[C@H](NC(=O)[C@H](CC(C)C)NC(=O)CNC(=O)[C@H](Cc1ccccc1)NC(=O)[C@H](Cc1ccccc1)NC(=O)[C@@H]1CCC(=O)N1)C(N)=O [CAP-TAC1] ([pGlu]FFGLM-NH2)
half-life at 10 µM (in vitro; mouse, plasma): 17.1 min
plasma stability t1/2, earlier manuscript version quoted in the rebuttal (in vitro; mouse, plasma): 14.4 min
Emax (human TACR3): ~20%

CC(C)C[C@H](NC(=O)CNC(=O)[C@@H]1CCC(=O)N1)C(=O)N[C@@H](CCC(=O)O)C(=O)N[C@@H](C)C(=O)N[C@@H](CC(C)C)C(=O)N[C@@H](CCCNC(=N)N)C(=O)N[C@@H](C)C(=O)N[C@@H](CCCNC(=N)N)C(=O)N[C@@H](CC(C)C)C(=O)N[C@@H](CCCNC(=N)N)C(=O)N[C@H](C(N)=O)C(C)C [Scrambled Peptide] ([pGlu]GLEALRARLRV-NH2)
Food Intake ([1]; 24 h, individual animal 1): 2.8 g
Food Intake ([1]; 24 h, individual animal 2): 2.6 g
Food Intake ([1]; 24 h, individual animal 3): 3.6 g
Food Intake ([1]; 24 h, individual animal 4): 3.6 g
Food Intake ([1]; 24 h, individual animal 5): 2.3 g
Food Intake ([1]; 48 h, individual animal 1): 6.2 g
Food Intake ([1]; 48 h, individual animal 2): 4.9 g
Food Intake ([1]; 48 h, individual animal 3): 7.3 g
Food Intake ([1]; 48 h, individual animal 4): 7.3 g
Food Intake ([1]; 48 h, individual animal 5): 4.2 g
Food Intake ([1]; 72 h, individual animal 1): 9.2 g
Food Intake ([1]; 72 h, individual animal 2): 7.4 g
Food Intake ([1]; 72 h, individual animal 3): 10.7 g
Food Intake ([1]; 72 h, individual animal 4): 10.9 g
Food Intake ([1]; 72 h, individual animal 5): 6.9 g

CSCC[C@H](NC(=O)[C@H](CC(C)C)NC(=O)CNC(=O)[C@H](Cc1ccccc1)NC(=O)[C@H](Cc1ccccc1)NC(=O)[C@H](CCC(N)=O)NC(=O)[C@H](CCC(N)=O)NC(=O)[C@@H]1CCCN1C(=O)[C@H](CCCCN)NC(=O)[C@@H]1CCCN1C(=O)[C@@H](N)CCCN=C(N)N)C(N)=O [Substance P]
plasma stability t1/2 (in vitro): 8.5 min
half-life at 10 µM (in vitro; mouse, plasma): 4.5 min

CC(C)C[C@H](NC(=O)CNC(=O)[C@@H]1CCC(=O)N1)C(=O)N[C@@H](CCC(=O)O)C(=O)N[C@@H](C)C(=O)N[C@@H](CC(C)C)C(=O)N[C@@H](CCCNC(=N)N)C(=O)N[C@@H](C)C(=O)N[C@@H](CCCNC(=N)N)C(=O)N[C@@H](CC(C)C)C(=O)N[C@@H](CCCNC(=N)N)C(=O)N[C@H](C(N)=O)C(C)C [scrambled CAP-GDF15] ([pGlu]GLEALRARLRV-NH2)
3-day body weight compared with control mice, in words [1, 4]: indistinguishable
3-day food intake compared with control mice, in words [1, 4]: indistinguishable
effect on acute food intake, in words [2]: completely ineffective
effect on respiratory exchange ratio (RER) [2]: completely ineffective

QFFGLM-NH2 [Substance P (6-11)]
half-life at 10 µM (in vitro; mouse, plasma): 8.5 min

QLELRLRVAAGR [uncapped CAP-GDF15]
effect on acute food intake, in words [2]: significantly less efficacious

liraglutide
bioavailability [3]: 55%
